Measured values as given in US20160340659A1, “ACTIN BINDING PEPTIDES AND COMPOSITIONS COMPRISING SAME FOR INHIBITING ANGIOGENESIS AND TREATING MEDICAL CONDITIONS ASSOCIATED WITH SAME” (YISSUM RESEARCH AND DEVELOPMENT COMPANY OF THE HEBREW …, priority 2014, published 2016).
Where no end group is shown, it is not given here.

Legend:
[1] = biological target: T1, G-Actin from rabbit muscle (Oryctolagus cuniculus, UniProt P68135); test: ELISA actin binding assay (solid-phase, immobilized actin); settings: immobilized G-actin 500 ng/well
T1 construct: G-Actin from rabbit muscle; purchased Sigma-Aldrich, St Louis, Mo; host or cells: rabbit muscle (tissue-derived)
Description: Peptides corresponding to a variety of amino acid sequences in the region of human RNASET2 comprising helix 5 and helix 6 were synthesized and assayed for actin binding in an ELISA actin binding assay.
Solid-phase ELISA for RNASET2 peptide binding to immobilized actin was performed as modified from Mejean 1987 (Biochem. J. 244: 571-577) and Mejean 1992 (Eur. J Biochem. 209: 555-562). All steps were conducted at 37° C. Immuno-96 Microwell™ solid plates (Thermo Fisher Scientific, MA) coated with 500 ng/well of G-Actin from rabbit muscle (Sigma-Aldrich, St Louis, Mo.) in 100 ul of 0.05 M carbonate buffer, pH 9.5 (Sigma-Aldrich, Mo), incubated for 1 h and washed with 250 ul/well Tris Buffered Saline (TBS) (Sigma-Aldrich). The wells were blocked with 3% bovine serum albumin (BSA, Sigma-Aldrich) in 200 ul/well TBS for another 1 hour and washed with 250 ul/well TBS. The candidate peptides are then added at various concentrations (for example, serial dilutions giving 500, 250 or 125 ng/well) in 100 ul/well Tris Buffered Saline (TBS), incubated for 1 hour and washed 3 times with 250 ul/well TBS containing 0.05% Tween®20 (TBST, Sigma-Aldrich). Anti-T2 RNase (rabbit anti-rhtrRNASET2, Anilab, Israel, whole serum or antiserum) was then added, incubated for 1 hour and the plates washed 3 times with 250 ul/well TBST. Labeled second antibody [peroxidase-conjugated affinity pure goat-anti rabbit IgG (Jackson, Pa.)] was added at a dilution of 1:10:000 in 100 ul/well TBS, incubated for 1 hour and the plates washed twice with 250 ul/well TBST. After an additional wash with 250 ul/well TBS, 1-Step Ultra TMB-ELISA (TMB-3,3′,5,5′ Tetramethylbenzidine) (Thermo-Scientific) was added (100 ul/well) and after 15-25 min of incubation, the reaction was read at A650 using Infinite F50-TECAN ELISA READER (TECAN, Austria). Each assay was performed in triplicates.

actin = actin (Oryctolagus cuniculus, UniProt P68135); test: Surface plasmon resonance (BIAcore) of actin binding; settings: actin on CM5 chip, 25° C.
Description: SPR was performed on a BIAcore 3000 instrument (BIAcore, Uppsala, Sweden). Actin was diluted in 100 mM CH3COONa pH 4.6 to a final concentration of 20 μg/ml (200 μl total) resulting in ˜1 ng immobilized actin on a CM5 BIAcore sensor chip (GE Healthcare Bio-Sciences AB) using the standard BIAcore amine coupling chemistry protocol. The CM5 chip allows four separate flow cells to be operated in the BIAcore 3000 instrument used in these experiments. Coupling is achieved by activating the surface of the sensor chips with equal volumes of 50 mM N-hydroxysuccimide (NHS)/200 mM Nethyl-N-(3-[…])-carboiimide (EDC) (BIAcore, AB, Uppsala, Sweden) to form activated carboxyl groups. An actin solution […] was run over the chip for 5 min at a rate of 10 μl/min, allowing the amine groups on the protein to react with the activated esters. In the final stage of immobilization, the surface was blocked by 1M ethanol amine, pH 8.0. The binding assay was performed by injecting the hRNASET2, trT2-49, trT2-49m or peptides solutions in running buffer (HBS—10 mM Hepes, 150 mM Sodium Chloride, 3 mM EDTA, 0.005% Polysorbate 20) at 5 different concentrations at a flow rate of 10 μl/min at 25° C. Injections were performed simultaneously over all four channels and blank surface (a plain dextran matrix, channel 1) was used as control. The net signal was obtained by subtracting the blank signal from the signal of the immobilized surface. The association phase for protein or peptides binding to actin was followed for 4 min, and dissociation phases were monitored for 3 min. Surface regeneration between consecutive binding cycles included a 1 min injection of 1 mM NaOH. The response was monitored as a function of time (sensorgram) at 25° C. Multi-concentration data were globally fit using BIA evaluation 3.2 software.
The strength of a two molecule interaction is characterized by the equilibrium dissociation (binding) constant KD=[P][L]/[PL], where [P] is the concentration of free protein (or peptide), [L] the concentration of ligand and [PL] the concentration of the complex. […]

[2] = system: chick Chorio-Allantoic Membrane (CAM); test: Ex ovo CAM angiogenesis assay; assay type: in vivo, chicken; settings: 3 μg on paper disk daily for four days from day 8; compared to PBS control
Description: In this assay, in-vivo angiogenesis is assessed on live chick embryos grown in petri dishes. Fertilized eggs are cracked into a petri dish after a few (e.g. 3) days incubation at appropriate temperature (e.g. 37° C.) and humidity. In the following days, the embryos developed a vascular network, which can then easily be exposed to any treatment or combination of treatments, for example, via delivery onto absorbent disks placed on/about the developing vascular regions. Angiogenesis is scored by periodically (e.g. 1×/day, 2×/day, 1×/2 days, 1×/4 days, etc) counting the number of blood vessels around the disk.
Fertilized chicken eggs were incubated horizontally at 37° C. and humidity of 60-62% and cracked into Petri dishes at embryonic day 4. Incubation was continued under the same conditions. […] Treatment was given every day for four days, then, the number of blood vessels around the treated disks was counted.

Ka × 10^3 (actin) | Sequence | actin binding on ELISA [1] | kon (actin; read-out: Ka × 10^3) | inhibition of angiogenesis (number of blood vessels around disk) [2]
 | ALNSQKKYFGRSLELYRELDLNSVLLKLGIKPSINYYQVADFKDALARVYGVIPKIQ [SEQ ID NO: 60] | strong | 1060 M⁻¹ s⁻¹ | effective in inhibiting angiogenesis
3.32 ×10^3 1/Ms | KKYFGRSLELYRELDLNSVLLKLGIK [SEQ ID NO: 57, 26-amino acid peptide representing amino acids 108-133 of RNASET2] | strong actin binding |  | effective in inhibiting angiogenesis
